In patent US8895518B2, “Cooperative conveyance of basic active principles by amphiphilic acid molecules” (Centre National de la Recherche Scientifique, priority 2009, dated 2014):
Where a name gives a salt, the structure may show the parent alone.

Tests used:
Type in all cases: physicochemical
[1] = Photodegradation monitored by UV / visible spectrophotometry; settings: after two months under natural exposure; for λmax (nm): visible range
Experimental: The study of the photophysical properties of promethazine hydrochloride and the association Lac6P on the one hand, and mequitazine hydrochloride and the association Lac6M on the other, was thus undertaken by UV spectrophotometry.
This study was carried out on a Hewlett-Packard 8452A diode array spectrophotometer operating at wavelengths between 190 nm and 820 nm.
The solutions were analyzed in quartz cells at concentrations of 4×10 ^−2 M and 6.6×10^−5 M.
(§1) To carry out this study, the various solutions (4×10^−2 M) are placed in a 25° C. water bath under natural light for several weeks. This gentler mode of irradiation was preferred over the use of a Xenon lamp which degrades the active principle too rapidly and makes it impossible to establish a comparison.
However, in order to better understand this phenomenon, photodegradation of the hydrochlorides and the associations Lac6P and Lac6M was monitored by visible spectrophotometry. This analysis technique is particularly suited to the study of this phenomenon because it takes color variations into account.
After two months under natural exposure, the appearance of a band for promethazine and mequitazine hydrochlorides, as well as for the catanionic association Lac6P, confirms the color changes observed. It is important to note that in visible spectrophotometry, perceived color is always complementary to absorbed radiation. For example, mequitazine hydrochloride absorbs in the green spectrum (λ=512 nm) and appears pink-purple.

[2] = Photostability under natural light, visual observations; settings: 4×10^−2 M solution, 25° C. water bath
Experimental: as §1

[3] = Photodegradation quantified by HPLC (undegraded active principle in solution); settings: after five days under natural light, 4×10^−2 M
Experimental: Promethazine photodegradation was monitored by HPLC on a Waters 2695 chromatograph equipped with Millipore 510 pumps and an XBridge RP18 column (2.1×100 nm, 3.5 μm). Promethazine is detected by UV-visible spectrophotometry, at a wavelength of 251 nm, with a Waters 2487 Dual λ Absorbance Detector. The mobile phase is composed of a 22/78 mixture of 0.1% formic acid in water and acetonitrile. Elution is carried out in isocratic mode with a flow rate of 0.35 ml/min^−1. The volumes injected are 10 μl. All the samples were injected three times.
A calibration curve is prepared beforehand with promethazine hydrochloride over a range of concentrations between 10^5 M and 5×10^−2 M.
In order to refine the results obtained, degradation of promethazine hydrochloride and the catanionic association Lac6P was quantified by high-performance liquid chromatography (HPLC). Degradation is monitored by assaying the quantity of undegraded active principle present in solution (FIG. 2).

Color observed [1] | λmax (nm) [1] | degradation rate [3] | Compound | colour change of the solution (visual observation) [2] | appearance of an insoluble product (visual observation) [2]
pink-purple | 512 nm | – | c1ccc2c(c1)Sc1ccccc1N2CC1CN2CCC1CC2 (centres unmarked) [Mequitazine hydrochloride, mequitazine hydrochloride] | turns pink after ten days of exposure, and then changes no further | –
violet-indigo | 538 nm | 13% | CC(CN1c2ccccc2Sc2ccccc21)N(C)C (centres unmarked) [Promethazine hydrochloride, promethazine hydrochloride] | turns pink after 24 hours of exposure and changes to blue-violet after a few days | an insoluble compound appears after about two weeks under natural light
